Measured values taken from patent US10137141B2, “Treatment regimen tiacumicin compound” (priority 2014, dated 2018).
≈ marks a conversion by molar mass, not a printed value. Entries after “also recorded” stand apart in the source; their conditions may differ. Like-named read-outs stand apart in the source and are kept apart here.

Assays:
[1] = low solubility, low permeability; cited from earlier work
Clostridium species = details: in vitro; cited from earlier work
Bifidobacteria [2] = experiment: In vitro gut model: gut microflora by selective culture, Bifidobacteria; assay type: cell-based
Procedure: Two 3-stage chemostat gut models were inoculated with pooled faeces (n=5). […] Models were then treated with fidaxomicin (200 mg/L bd) for 20 or 5 d to achieve in vivo gut levels. 5 days post treatment in the short course model, a further 5 days fidaxomicin pulse was given. CD total viable counts (TVC), spore counts (SP), toxin titres (CYT), and gut bacteria were measured throughout. Data were also compared with results for FDX given for 7 days (model 7).
Two tests in a validated three-stage compound continuous culture system (Freeman J, O'Neill F J, Wilcox M H. The effects of cefotaxime and desacetylcefotaxime upon Clostridium difficile proliferation and toxin production in a triple-stage chemostat model of the human gut. J Antimicrob Chemother 2003; 52: 96-102; Baines S D, Freeman J, Wilcox M H. Effects of piperacillin/tazobactam on Clostridium difficile growth and toxin production in a human gut model. J Antimicrob Chemother 2005; 55: 974-82) were run in parallel. […]
(§1) The continuous culture system consisted of three vessels, V1, V2, and V3, with respective operating volumes of 0.22, 0.32, and 0.32 L (FIG. 1). […] Retention time was calculated as the reciprocal of dilution rate. […] Minimum doubling times of bacteria were calculated as 0.693/D, where D is the dilution rate (h−1) for each culture vessel. […] Steady-state conditions were assessed by monitoring short-chain fatty acid (SCFA) formation. […]

CDI [3] = details: two Phase III trials; cited from earlier work
[4] = some previous fidaxomicin dosing regimens; cited from earlier work
CDI [5] = experiment: Expected clinical outcome of the new dosing regimens (proposed clinical study); assay type: in vivo, patients; details: expected benefit of the dosing regimens of the invention
enterococci = experiment: In vitro gut model: gut microflora by selective culture, enterococci; assay type: cell-based; details: both dosing regimens (Model C and D)
Text: (§2) Two tests in a validated three-stage compound continuous culture system (Freeman J, O'Neill F J, Wilcox M H. The effects of cefotaxime and desacetylcefotaxime upon Clostridium difficile proliferation and toxin production in a triple-stage chemostat model of the human gut. J Antimicrob Chemother 2003; 52: 96-102; Baines S D, Freeman J, Wilcox M H. Effects of piperacillin/tazobactam on Clostridium difficile growth and toxin production in a human gut model. J Antimicrob Chemother 2005; 55: 974-82) were run in parallel. Models were inoculated with pooled faecal slurry (10% in anaerobic distilled water) from healthy volunteers (n=5, age >60 yrs).
as §1, with “1). Temperature (37° C.) and pH were automatically controlled to reflect the proximal-distal colon. Culture pH in the three vessels was 5.5, 6.2, and 6.8, respectively. Each fermentor was magnetically stirred and maintained under an atmosphere of CO2.” for “1).”

Bifidobacteria [6] = details: both dosing regimens (Model A and Model B); cited from earlier work
C. difficile = experiment: MIC against C. difficile; assay type: cell-based, Clostridium difficile; details: Clostridioides difficile
[7] = oral administration; cited from earlier work
[8] = system: C. difficile PCR ribotype 027; details: cited from earlier work
[9] = system: C. difficile infections (CDI); details: cited from earlier work
[10] = system: C. difficile PCR ribotype 027; experiment: In vitro gut model of CDI (three-stage chemostat): C. difficile viable counts, spore counts, cytotoxin titre; assay type: cell-based, Clostridium difficile; details: both tapered dosing regimens (Model C and D)
Procedure: Two 3-stage chemostat gut models were inoculated with pooled faeces (n=5). […] […] 5 days post treatment in the short course model, a further 5 days fidaxomicin pulse was given. CD total viable counts (TVC), spore counts (SP), toxin titres (CYT), and gut bacteria were measured throughout. Data were also compared with results for FDX given for 7 days (model 7).
as §2
The continuous culture system consisted of three vessels, V1, V2, and V3, with respective operating volumes of 0.22, 0.32, and 0.32 L (FIG. 1). Temperature (37° C.) and pH were automatically controlled to reflect the proximal-distal colon. Culture pH in the three vessels was 5.5, 6.2, and 6.8, respectively. Each fermentor was magnetically stirred and maintained under an atmosphere of CO2. The growth medium was continuously sparged with O2-free N2 and fed by peristaltic pump to V1. V1 sequentially supplied V2 and V3 via a series of weirs. The culture medium consisted of the following constituents (g liter-1) in distilled water: starch (BDH Ltd.), 5.0; pectin (citrus), 2.0; guar gum, 1.0; mucin (porcine gastric type III), 4.0; xylan (oatspelt), 2.0; arabinogalactan (larch wood), 2.0; inulin, 1.0; casein (BDH Ltd.), 3.0; peptone water, 5.0; tryptone, 5.0; bile salts No. 3, 0.4; yeast extract, 4.5; FeSO4 z 7H2O, 0.005; NaCl, 4.5; KCl, 4.5; KH2PO4, 0.5; MgSO4 z 7H2O, 1.25; CaCl2 z 6H2O, 0.15; NaHCO3, 1.5; cysteine, 0.8; hemin, 0.05; Tween 80, 1.0 The system was initially operated at a retention time (R) of 27.1 h (experiment 1), followed by an increase to R=66.7 h (experiment 2). Retention time was calculated as the reciprocal of dilution rate. System retention constitutes the sum of individual R values in each fermentor. Minimum doubling times of bacteria were calculated as 0.693/D, where D is the dilution rate (h−1) for each culture vessel. Each fermentor was inoculated with 100 ml of a fresh 10% (w/v) fecal slurry from a healthy, nonmethane producing donor. […] Steady-state conditions were assessed by monitoring short-chain fatty acid (SCFA) formation. […]

[11] = Antimicrobial concentration (bioassay) in the in vitro gut model
Procedure: The continuous culture system consisted of three vessels, V1, V2, and V3, with respective operating volumes of 0.22, 0.32, and 0.32 L (FIG. 1). Temperature (37° C.) and pH were automatically controlled to reflect the proximal-distal colon. Culture pH in the three vessels was 5.5, 6.2, and 6.8, respectively. Each fermentor was magnetically stirred and maintained under an atmosphere of CO2. The growth medium was continuously sparged with O2-free N2 and fed by peristaltic pump to V1. V1 sequentially supplied V2 and V3 via a series of weirs. […] Retention time was calculated as the reciprocal of dilution rate. […] Minimum doubling times of bacteria were calculated as 0.693/D, where D is the dilution rate (h−1) for each culture vessel. […] Steady-state conditions were assessed by monitoring short-chain fatty acid (SCFA) formation. […]

[12] = Model A: fidaxomicin 200 mg/L bd for 20 d

For `CCc1c(Cl)c(O)c(Cl)c(O)c1C(=O)O[C@H]1[C@H](O)[C@H](OC)[C@H](OC/C2=C\C=C\C[C@H](O)/C(C)=C/[C@H](CC)[C@@H](O[C@@H]3OC(C)(C)[C@@H](OC(=O)C(C)C)[C@H](O)[C@@H]3O)/C(C)=C/C(C)=C/C[C@@H]([C@@H](C)O)OC2=O)O[C@@H]1C` [fidaxomicin, 3-[[[6-deoxy-4-O-(3,5-dichloro-2-ethyl-4,6-dihydroxybenzoyl)-2-O-methyl-β-D-mannopyranosyl]oxy]methyl]-12(R)-[[6-deoxy-5-C-methyl-4-O-(2-methyl-1-oxopropyl)-β-D-lyxo-hexopyranosyl]oxy]-11(S)-ethyl-8(S)-hydroxy-18(S)-(1(R)-hydroxyethyl)-9,13,15-trimethyloxacyclooctadeca-3,5,9,13,15-pentaene-2-one], the “BCS (Biopharmaceutics Classification System) class” value [1] is listed as “Class IV”, the “MIC values compared with optically pure S-isomer of tiacumicin B and other tiacumicin related compounds” value (Clostridium species) is listed as “lower MIC values” and the “Declines in Bifidobacteria to limit of detection” value (Bifidobacteria [2]; both dosing regimens (Model C and D)) is listed as 6-8 log10 cfu/mL. For the same compound, the “Recovery of Bifidobacteria populations” value (Bifidobacteria [2]; both models (C and D), by the end of the experiment) was “recovered to near pre-installation counts; also recorded: recovered to close to pre-fidaxomicin levels”, the “Initial clinical cure of CDI versus vancomycin” value (CDI [3]) was “non-inferiority” and the “Reduction of recurrence and sustained clinical response versus vancomycin” value (CDI [3]) was “superiority”. The Persistence of fidaxomicin [4] was 20 mg/L, the Recurrence (CDI [5]) was “below 5%” and the Declines in enterococci (enterococci) was 2-5 log10 cfu/mL. For the same compound, the “Decrease of bifidobacteria to below LOD” value (Bifidobacteria [6]) was 6-8 log10 cfu/mL, the Recovery of bifidobacteria (Bifidobacteria [6]) was “did not recover” and the MIC (C. difficile) was 0.25 µg/mL (≈ 0.236 µM). The “Absorption from the intestinal tract” value [7] was “poorly absorbed”, the “CD TVC reduced to the limit of detection (LOD) by day” value [8, 12] was no more than 5 days and the “CYT (toxin titre) reduced to the limit of detection (LOD) by day” value [8, 12] was no more than 7 days. For the same compound, the “Reduction of CD TVCs” value ([8]; Model B: 200 mg/L bd 5 d, still detectable on day 5 of treatment) was roughly 4 log10 cfu/mL, the “TVC and SP after second 5 days fidaxomicin pulse” value ([8]; Model B: 5 d, 5 d rest, further 5 d pulse) was “decreased TVC and SP to LOD” and the “Courses resulting in treatment success” value ([9]; 18 courses of fidaxomicin in 14 patients (FID-TX, FID-CH, FID-TP)) was 18 courses. The RCDI ([9]; FID-CH: 10-day fidaxomicin chaser, 8 courses, excluding RCDI due to antimicrobial exposure) was 25%, the “Average symptom-free interval (SFI)” value ([9]; FID-CH) was 240 days and the RCDI ([9]; FID-TP: taper 200 mg daily 7 days then 200 mg QOD 7-26 days, 7 courses) was “no RCDI”. For the same compound, the “Average symptom-free interval (SFI)” value ([9]; FID-TP) was 150 days, the RCDI episodes ([9]; FID-TX: 200 mg BID for 10 days, 3 courses) was 66% and the “Average symptom-free interval (SFI)” value ([9]; FID-TX) was 73 days. The “Reduction of C. difficile viable counts to below the level of detection” value [10] was roughly 6 log10 cfu/mL, the “Reduction of spore counts to below the level of detection” value [10] was roughly 4 log10 cfu/mL and the “Reduction of toxin titres to below the level of detection” value [10] was 3 RU. For the same compound, the “Time to reduce C. difficile viable counts, spore counts and toxin titres to below the level of detection” value [10] was less than 3 days, the “Persistence of fidaxomicin at supra MIC level” value ([11]; dosing regimens i and ii) was 2 to 5 µg/mL and the Peak fidaxomicin concentration ([11]; human) was roughly 100 mg/L.
In the case of `CN[C@H](CC(C)C)C(=O)N[C@H]1C(=O)N[C@@H](CC(N)=O)C(=O)N[C@H]2C(=O)N[C@H]3C(=O)N[C@H](C(=O)N[C@H](C(=O)O)c4cc(O)cc(O)c4-c4cc3ccc4O)[C@H](O)c3ccc(c(Cl)c3)Oc3cc2cc(c3O[C@@H]2O[C@H](CO)[C@@H](O)[C@H](O)[C@H]2O[C@H]2C[C@](C)(N)[C@H](O)[C@H](C)O2)Oc2ccc(cc2Cl)[C@H]1O` [vancomycin], the “Average symptom-free interval (SFI)” value ([9]; following a vancomycin taper) is given as 37 days.
